Measured values: patent US20250262139A1, “POLYPEPTIDES AND METHODS FOR IMPROVING SKIN CONDITIONS” (INTERK PEPTIDE THERAPEUTICS LIMITED, priority 2020, published 2025)
Where no end group is shown, it is not given here.

Experiments:
Skh: hr1 hairless mice = assay: CPD (thymine dimer) immunohistochemistry in UV-irradiated mouse skin; type: in vivo; conditions: topical immediately after UVR; IK34720 20, 100 or 200 μg, Calcitriol 11.4 pmol/cm2; 3 hours post-UVR; vs vehicle
Method: Female Skh: hr1 hairless mice were exposed to solar simulated UV-irradiation as described above at Example 4. Immediately after irradiation mice were treated topically on the dorsal surface also as described in Example 4. Subsequently, skin was fixed at 3 hours post-UVR, and subjected to immuno-histochemical staining using the antibody directed against thymine dimers (CPD) described above at 10 μg/ml. […] In FIG. 9, dark staining in nuclei indicates the presence of thymine dimers (CPD), and the % area stained is presented. Immunohistology was quantified as per Example 4.

[1] = test system: human primary melanocytes; assay: melanin content after UVB, primary melanocytes; type: cell-based; conditions: 10 μM for 24 hours prior to 2 kJ/m2 UVB; measured 24 hours later; relative to untreated UVB cells
Method: In brief, MM1418-C1 lightly pigmented melanoma cells or human primary melanocytes were grown in 24 well culture plates and treated with 10 μM
RSKAKNPLYRRRRRRRRR (“IK-3”) for 24 hours prior to being exposed to 2 kJ/m2 UVB radiation. Controls (not treated with RSKAKNPLYRRRRRRRRR) labelled “Con” and “UVB”, respectively, were exposed to either 0 or 2 KJ/m2 UVB radiation. Cell groups were returned to the incubator for 24 hours and then the levels of melanin and protein in the cells were measured spectrophotometrically. In each experiment triplicate samples were measured. Data shown in FIG. 19 indicate the average values+SEM (μg melanin/mg cell protein) exposed to 0 or 2 KJ/m2 UVB which had been pre-treated with 0 or 10 μM of RSKAKNPLYRRRRRRRRR 24 hours prior to being exposed to UVB radiation. The t-test (2-tailed) was used to determine statistical significance, *p<0.05, ***p<0.001.

MMP1 = MMP1 immunohistochemical staining in UV-irradiated human skin explants; type: cell-based
Method: Human skin (2×human explant tissues) removed at elective surgery was cleaned, dissected and cut into pieces of approx. 5 mm×5 mm. Each piece was placed in a well of a 96 well plate, with individual plates prepared to assess the effects 3 hrs post treatment. Skin was subjected to UV-radiation from solar-simulated UV source for 1.5 h (UVR), or non-irradiation (SHAM), and treated immediately after with a vehicle control, Calcitriol (1 nM) or the polypeptide IK34720 (SEQ ID NO: 3) at concentrations of 50 μM, 250 μM or 500 μM. In FIG. 17, IK50, IK250 and IK500 as μM concentrations refers to 15 μg, 75 μg and 150 μg of IK34720 per 120 μL culture medium/explant, respectively.
Samples harvested at 3 hrs were fixed, sectioned, immunohistochemically stained for MMP1 and quantified for MMP1 expression, by expressing epidermal area stained for MMP1 as a function of total epidermal area examined.

Aquaporin 3 = Aquaporin 3 expression in keratinocytes exposed to HEV (blue) light; type: cell-based, human; conditions: NHEK exposed to HEV (blue) light; for increase in number of Aquaporin 3 positive cells: 470 nm, 3 days
Method: The ability of the polypeptide RSKAKNPLYRRRRRRRRR, to reverse HEV light (‘blue light”) induced damage to human keratinocytes was examined. In brief, Human Epidermal Keratinocytes (NHEK) which are representative of the epidermis were exposed to HEV light in the presence of the polypeptide RSKAKNPLYRRRRRRRRR, or untreated in the presence of the polypeptide RSKAKNPLYRRRRRRRRR.
The expression of Aquaporin 3 in cells (e.g. aquaporin 3 positive cells_was measured. Aquaporin 3 is found in the basolateral cell membrane and provides a pathway for water to exit cells. It is expressed in various tissues including the skin.
The experiment was carried out in quintuplicate in the following conditions (n=5): • Untreated NHEK • NHEK+IK14800 2,5 μM • NHEK+IK14800 5 μM • NHEK+IK14800 10 μM • NHEK+Blue light • NHEK+Blue light+IK14800 2.5 μM • NHEK+Blue light+IK14800 5 μM • NHEK+Blue light+IK14800 10 μM
Chronic blue light irradiation: one exposure per day for 3 days (220 joules—wavelength 470 nm). 4 days of treatment with the peptide (24 h before exposure to blue light and during the 3 days. The peptide was resuspended in milliQ water then diluted in the cell culture medium.
After treatment, the cells were washed and fixed with Formalin.
Finally, the nuclei were labelled with DAPI. The labelled proteins were observed and quantified by automated fluorescence microscopy Cellinsight CX7 High-Content Screening Platform (Thermofischer Data analysis
A statistical analysis was performed using Mann-Whitney by Prism software. The significance is correlated with the p-value: ns=no significant, […], **p-value<0.01, ***p-value<0.001.).

[2] = target: T1, Human rheumatoid synovial fibroblast MMP-1 (Homo sapiens, UniProt P03956); assay: MMP-1 activity, fluorogenic substrate assay; type: biochemical; conditions: 5, 10, 800 and 1000 μM; 8 nM activated enzyme
T1 construct: endogenous in cells; host or cells: human rheumatoid synovial fibroblasts
T1 sequence (P03956 100-469): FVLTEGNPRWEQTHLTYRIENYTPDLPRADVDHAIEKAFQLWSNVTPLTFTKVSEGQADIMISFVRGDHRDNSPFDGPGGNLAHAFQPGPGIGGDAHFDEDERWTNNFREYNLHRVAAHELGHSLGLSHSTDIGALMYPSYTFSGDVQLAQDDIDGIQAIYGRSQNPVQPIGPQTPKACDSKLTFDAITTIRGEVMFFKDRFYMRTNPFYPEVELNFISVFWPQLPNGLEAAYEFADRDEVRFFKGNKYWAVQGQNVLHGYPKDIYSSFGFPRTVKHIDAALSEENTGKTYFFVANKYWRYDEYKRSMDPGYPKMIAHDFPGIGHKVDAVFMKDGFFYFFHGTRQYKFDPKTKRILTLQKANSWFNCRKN
Method: Human rheumatoid synovial fibroblast MMP-1 proenzyme, activated with APMA for 60 minutes at 37° C., was used as an active enzyme. The polypeptide IK34720 (SEQ ID NO: 3) at a concentration of 5 μM. 10 μM 800 μM and 1000 μM was pre-incubated with 8 nM activated enzyme in modified MOPS buffer pH 7.2 for 60 minutes at 37° C. The reaction was initiated by addition of […] Mca-Pro-Leu-Gly-Leu-Dap-Ala-Arg followed by a 2 hour incubation period. Determination of the amount of Mca-Pro-Leu-Gly formed was read spectrofluorimetrically at 340 nm/400 nm.

Which results are given for “RSKAKNPLYRRRRRRRRR (not fully specified (some residues)) [IK34720]”?
CPD formation in the skin (% area stained) (Skh: hr1 hairless mice): inhibits CPD formation; melanin content [1]: significantly decreased melanin content; percentage of MMP1 positive cells (MMP1; 500 μM, 3 hrs post irradiation): statistically significantly reduced; cells staining for MMP-1 (MMP1; 3 hrs post irradiation/treatment, Calcitriol 1 nM, IK34720 50, 250 or 500 μM): fewer stained cells; increase in number of Aquaporin 3 positive cells (Aquaporin 3; 5 μM): +20%; increase in number of Aquaporin 3 positive cells (Aquaporin 3; 10 μM): +27%; basal expression of Aquaporin 3 (Aquaporin 3; 2.5, 5, 10 μM): restores the basal expression of Aquaporin 3 in a dose dependent manner; MMP-1 activity [2]: inhibits MMP-1 activation in a dose dependent manner
